Entries after “also recorded” stand apart in the source; their conditions may differ.
How the values were obtained:
[1] = system: ADP-induced platelet aggregation; assay: ADP-induced platelet aggregation of rabbit blood plasma, in vitro; type: cell-based; details: concentrations of 10^−3-10^−7 M; listed as compound of formula I
Procedure: (§1) Antiplatelet activity was assessed by the effect of the compound on platelet aggregation of rabbit blood plasma, induced by ADP (adenosine diphosphate) and arachidonic acid. Platelet aggregation was assessed by the change of optical density of plasma. Studies were performed using both intravenous administration, in comparison with sodium nitroprusside, and oral administration, in comparison with acetylsalicylic acid. Compound I was used in concentrations of 10^−3-10^−7 M (parenteral administration) and in 4-8 and 12 mg/kg doses (oral administration).

[2] = system: platelet aggregation induced by arachidonic acid; assay: Platelet aggregation induced by arachidonic acid following peroral administration in rabbits; type: in vivo, rabbit
Procedure: FIG. 3 is a graph showing the changes in platelet aggregation, induced by arachidonic acid, following peroral administration of the compound I in rabbits (% compared to control).
as §1
Using arachidonic acid (AA) as an aggregation inductor, the experiments were performed in conditions of oral administration. We consider such experimentation justified by the possibility of different routes of administration for the tested compound, not only intravenous one (unlike sodium nitroprusside).

[3] = system: human neutrophils; assay: FMLP-induced generation of superoxide anion radical by human neutrophils; type: cell-based; details: neutrophils weakened by pathological processes
Text: We have also studied the effect of the compound on formylmethionyl-leucyl-phenylalanine (FMLP)—induced generation of superoxide anion radical (O2^−.) by human neutrophils, weakened by pathological processes (histiocytosis, stage 2 hypertension). Such experimentation was chosen due to the fact, that, in order to perform a complete phagocytosis with complete destruction of pathogenic microorganisms, phagocytes, including neutrophils, generate the so-called reactive oxygen species (ROS), including oxygen radicals and compounds easily converting into such radicals. Superoxide anion radical (O2^−.) hydroxyl radical (OH.) and lipid hydroxyperoxides (ROO*) also belong to AOF. All these compounds have one unpaired electron on outer molecular orbital, giving them high reactivity, which causes their interaction with cell molecules: proteins, RNA, DNA, etc, accompanied by the loss of their biological activity.

[4] = system: rat hemostasis; assay: Model of parenchymal hemorrhage (bleeding time) after oral administration; type: in vivo
Procedure: The model of parenchymal hemorrhage characterizes hemostasis through the stimulation of coagulation cascade. Usually, it is rather difficult to obtain considerable change of bleeding time in these models with resorptive-acting compounds. Direct-action anticoagulants (heparin, heparinoids) prolong bleeding time in these models only in high doses, while the effect is detected at different time (up to 3 hours after the administration). Indirect-action […] drugs (oxycoumarines, indandiones, etc.) usually begin to increase bleeding after a certain delay period (12-48 hours after the administration), which is easily explainable by the modern understanding of their mechanism of action: they stop the biosynthesis of blood clotting plasma factors II, VII, IX, X, while the duration of delay period is determined by the amount of these factors, produced in the liver before the administration of vitamin K reductase inhibitors (oxycoumarines, indandiones).
The duration of parenchymal hemorrhage in the control group was 88.9±1.2 s. Test groups of animals used in the experiments 60 minutes after oral administration of the compound of formula I. After the administration of 8 mg/kg dose the duration of parenchymal hemorrhage in test group increased by 71% compared to original condition, it further increased to 220.6±3.4 s after another hour.

[5] = Acute toxicity (LD50); type: in vivo; details: mouse, in vivo, other: internal administration
Text: (§2) Acute toxicity of the compound in mice in internal administration is 8.9±0.75 g/kg, cumulation after 28 days administration is weak (lethality less than 50%).

[6] = system: mice; assay: Acute toxicity (LD50); type: in vivo; details: mice, internal administration
Text: as §2

[7] = system: spontaneously hypertensive (SHT) rats; assay: Blood pressure in narcotized SHT rats, intravenous administration; type: in vivo, rat
Procedure: (§3) The experiments were performed on spontaneously hypertensive (SHT) and normotensive (NT) narcotized male rats using intravenous administration of the tested compounds. The ability of the compound to reduce arterial blood pressure (BP) in SHT rats and prevent spasmogenic reactions to noradrenalin (NA) and angiotensin I (AI).
The compound of formula I was used as a solution in 3% aqueous DMSO. Sodium nitroprusside and nitroglycerin were used as reference drugs.
The administration of the compound of formula I in dose range 0.01-0.1-0.5 and 1.0 mg/kg has exerted dose-dependent antihypertensive effect ranging in time from 30-40 s to 60 min and more.

[8] = system: pressor effect of noradrenaline; assay: Pressor effect of noradrenaline after intravenous administration in normotensive narcotized rats; type: in vivo, rat
Procedure: as §3
(§4) The effects of the compound of formula I on the pressor effects of noradrenaline (NA, 10-15 μg/kg), mesatonum (M, 5 μg/kg) and angiotensin (AI, 5 μg/kg) were studied on normotensive narcotized […]. Antihypertensive action of the compound of formula I was assessed relative to the pressor effects of the control administration of the aforementioned compounds.

[9] = system: pressor effect of angiotensin I; assay: Pressor effect of angiotensin I after intravenous administration in normotensive narcotized rats; type: in vivo, rat
Procedure: as §3, §4

[10] = system: pressor action of mesatonum; assay: Pressor effect of mesatonum in normotensive narcotized animals; type: in vivo; details: doses 0.01-1.0 mg/kg; mesatonum 5 μg/kg
Procedure: as §4

Structure (SMILES): CN1CC(CO)O/C1=C(C#N)/C=C1/Nc2ccccc2C1=O (centres unmarked) [Compound I, 2-[2-Cyano-2-[5-(hydroxymethyl)-3-methyl-1,3-oxazolidin-2-ylidene]ethylidene]indolin-3-one]
- In vitro antiplatelet activity (inhibition of ADP-induced platelet aggregation) [1]: significantly inhibits; also recorded: as good as that of acetylsalicylic acid
- Effect on platelet aggregation (statistically significant) ([2]; after 2 hours (inductor not restated)): 32%
- Effect on platelet aggregation ([2]; at 4 hour (inductor not restated)): 38%
- Effect on platelet aggregation (as a tendency) ([2]; end of the first hour (inductor not restated)): up to 10%
- Reduction of platelet aggregation induced by arachidonic acid ([2]; oral, rabbits, 1 hour after the administration): reduced by a third
- Action of AA at the end of the observation period ([2]; oral, rabbits, 4 hours): comparable to the control
- Inhibition of the action of the inductor (AA) ([2]; oral, rabbits, after 2 hour): by over two times
- Duration of effect on AA-induced aggregation ([2]; per os): 2 to 4 h
- Effect on reduced ability of human neutrophils to generate reactive oxygen species [3]: briefly enhances
- Increase of duration of parenchymal hemorrhage compared to original condition ([4]; 8 mg/kg oral, 60 minutes after administration): 71%
- Duration of parenchymal hemorrhage ([4]; 8 mg/kg oral, after another hour (control 88.9±1.2 s)): 220.6 ± 3.4 s
- Duration of parenchymal hemorrhage vs control ([4]; 8 mg/kg oral, end of experiment (240 min)): did not differ from the control group
- Duration of bleeding ([4]; 16 mg/kg oral, first 60 min of the observation): increased twofold
- Effect on rat hemostasis in the model of parenchymal hemorrhage ([4]; rat, in vivo): statistically significantly slows down rat hemostasis
- LD50 [5]: 8900 mg/kg
- Acute toxicity [6]: 8.9 ± 0.75 g/kg
- Duration of BP reduction ([7]; 0.01 mg/kg dose intravenous): 30 s
- Reduction of BP ([7]; 0.01 mg/kg dose intravenous): 10-12 mmHg
- Reduction of BP, mmHg (Δ) ([7]; 0.01 mg/kg intravenously, 10-20 s): −12 ± 5 mmHg
- Reduction of BP, mmHg (Δ) ([7]; 0.1 mg/kg intravenously, 10-20 s): −15 ± 5 mmHg
- Reduction of BP, mmHg (Δ) ([7]; 0.1 mg/kg intravenously, 5 min): −20 ± 7 mmHg
- Reduction of BP, mmHg (Δ) ([7]; 0.5 mg/kg intravenously, 10-20 s): −10 ± 3 mmHg
- Reduction of BP, mmHg (Δ) ([7]; 0.5 mg/kg intravenously, 5 min): −20 ± 8 mmHg
- Reduction of BP, mmHg (Δ) ([7]; 0.5 mg/kg intravenously, 30 min): −25 ± 8 mmHg
- Reduction of BP, mmHg (Δ) ([7]; 0.5 mg/kg intravenously, 60 min): −30 ± 7 mmHg
- Duration of BP reduction ([7]; 1.0 mg/kg dose intravenous): 3600 s
- Reduction of BP (maximal effect) ([7]; 1.0 mg/kg dose intravenous): 25-30 mmHg
- Reduction of BP, mmHg (Δ) ([7]; 1.0 mg/kg intravenously, 10-20 s): −12 ± 3 mmHg
- Reduction of BP, mmHg (Δ) ([7]; 1.0 mg/kg intravenously, 5 min): −25 ± 7 mmHg
- Reduction of BP, mmHg (Δ) ([7]; 1.0 mg/kg intravenously, 30 min): −30 ± 7 mmHg
- Reduction of BP, mmHg (Δ) ([7]; 1.0 mg/kg intravenously, 60 min): −30 ± 8 mmHg
- Reduction of BP, mmHg (Δ) ([7]; 1.0 mg/kg intravenously, 120 min): −30 ± 8 mmHg
- Inhibition of pressor reaction (%) induced by Noradrenaline ([8]; 0.01 mg/kg intravenous): 25%
- Inhibition of pressor reaction (%) induced by Noradrenaline ([8]; 0.05 mg/kg intravenous): 35%
- Inhibition of pressor reaction (%) induced by Noradrenaline ([8]; 0.1 mg/kg intravenous): 50%
- Inhibition of pressor reaction (%) induced by Noradrenaline ([8]; 0.5 mg/kg intravenous): 60%
- Inhibition of pressor reaction (%) induced by Noradrenaline ([8]; 1.0 mg/kg intravenous): 55-60%
- Inhibition of pressor reaction (%) induced by Angiotensin I ([9]; 0.01 mg/kg intravenous, 0 - absence of effect): 0%
- Inhibition of pressor reaction (%) induced by Angiotensin I ([9]; 0.05 mg/kg intravenous): 10%
- Inhibition of pressor reaction (%) induced by Angiotensin I ([9]; 0.1 mg/kg intravenous, listed as Compound of formula I): 25-30%
- Inhibition of pressor reaction (%) induced by Angiotensin I ([9]; 0.1 mg/kg intravenous, listed as compound of formula I): 25%
- Inhibition of pressor reaction (%) induced by Angiotensin I ([9]; 0.5 mg/kg intravenous, 0 - absence of effect): 30%
- Inhibition of pressor reaction (%) induced by Angiotensin I ([9]; 1.0 mg/kg intravenous): 30-40%
- Effect on the pressor action of M (mesatonum) [10]: does not significantly affect

Source: patent publication US9453008B2, “Antithrombotic and antiatherosclerotic agent and method for producing same (variants)” (PROTON OOO, priority 2011, dated 2016)
